From patent EP2970215B1, “PYRROLIDINE DERIVATIVES, PHARMACEUTICAL COMPOSITIONS CONTAINING THEM, AND THEIR USE IN THERAPY” (AbbVie Deutschland GmbH & Co. KG, priority 2013, dated 2014) come the findings set out here.

One test concerns the target T1, human GlyT1c transporter (Homo sapiens, UniProt P48067).
T1 construct: expressed in transfected cells; host or cells: CHO cells (recombinant; line hGlyT1c_5_CHO is named for the uptake assay)
T1 sequence (P48067 1-706): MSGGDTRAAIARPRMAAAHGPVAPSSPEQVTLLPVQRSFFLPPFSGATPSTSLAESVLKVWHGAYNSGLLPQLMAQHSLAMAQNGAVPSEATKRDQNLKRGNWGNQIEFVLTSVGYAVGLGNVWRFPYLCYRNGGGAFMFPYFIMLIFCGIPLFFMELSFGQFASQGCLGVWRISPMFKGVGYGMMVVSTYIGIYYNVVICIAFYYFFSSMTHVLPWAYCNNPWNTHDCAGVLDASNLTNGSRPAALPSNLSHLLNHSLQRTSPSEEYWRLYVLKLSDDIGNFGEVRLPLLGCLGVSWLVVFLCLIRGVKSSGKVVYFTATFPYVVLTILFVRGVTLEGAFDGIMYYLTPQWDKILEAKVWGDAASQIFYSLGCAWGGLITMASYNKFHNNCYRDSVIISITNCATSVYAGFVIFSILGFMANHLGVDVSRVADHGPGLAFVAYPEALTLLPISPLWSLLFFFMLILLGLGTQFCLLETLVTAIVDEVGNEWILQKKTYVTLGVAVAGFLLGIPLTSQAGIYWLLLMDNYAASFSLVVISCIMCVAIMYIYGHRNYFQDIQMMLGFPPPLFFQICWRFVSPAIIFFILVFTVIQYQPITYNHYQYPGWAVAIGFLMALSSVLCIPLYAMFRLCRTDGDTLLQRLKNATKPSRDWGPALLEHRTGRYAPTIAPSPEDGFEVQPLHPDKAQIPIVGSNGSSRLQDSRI
Put plainly: Radioligand binding assay using recombinant CHO cell membranes expressing human GlyT1. To be noted: radioligand binding to human GlyT1c transporter-expressing membranes. The text has this:
2. Radioligand binding assays using recombinant CHO cell membranes expressing human GlyT1: […]
In the case of `Cn1cnc(S(=O)(=O)N2C[C@@H](NCc3cccc(C(F)(F)F)c3)[C@H](c3ccc(F)cc3)C2)c1` (relative stereo) [Example 266, trans-4-(4-fluorophenyl)-1-[(1-methyl-1H-imidazol-4-yl)sulfonyl]-N-[3-(trifluoromethyl)benzyl]pyrrolidin-3-amine], the inhibitory constant (Ki) is not above 1000 nM.
The same measure, in the same setting: the value for `Cn1cnc(S(=O)(=O)N2C[C@@H](Nc3ccccc3)[C@H](c3ccccc3F)C2)c1` (relative stereo) [Example 198, trans-4-(2-fluorophenyl)-1-[(1-methyl-1H-imidazol-4-yl)sulfonyl]-N-phenylpyrrolidin-3-amine] was not above 1000 nM.
Still for that read-out and setting: the value for `Cn1cnc(S(=O)(=O)N2C[C@H](NCc3cnn4ccccc34)[C@@H](c3ccccc3)C2)c1` [Example 537, (3R,4S)-1-[(1-methyl-1H-imidazol-4-yl)sulfonyl]-4-phenyl-N-(pyrazolo[1,5-a]pyridin-3-ylmethyl)pyrrolidin-3-amine] was not above 10000 nM; that for `Cn1cnc(S(=O)(=O)N2C[C@H](Nc3ncc(F)c(C(F)(F)F)c3F)[C@@H](c3ccccc3)C2)c1` [Example 408, 3,5-difluoro-N-{(3R,4S)-1-[(1-methyl-1H-imidazol-4-yl)sulfonyl]-4-phenylpyrrolidin-3-yl}-4-(trifluoromethyl)pyridin-2-amine] was not above 10000 nM; that for `Cn1cnc(S(=O)(=O)N2C[C@@H](O)[C@H](Nc3cccc(Cl)c3)C2)c1` (relative stereo) [Example 373, Trans-4-[(3-chlorophenyl)amino]-1-[(1-methyl-1H-imidazol-4-yl)sulfonyl]pyrrolidin-3-ol] was not above 10000 nM.
On the same count and under the same terms, with `Cn1cnc(S(=O)(=O)N2C[C@H](NCC(C)(C)C)[C@@H](c3ccccc3)C2)c1` [Example 436, (3R,4S)-N-(2,2-dimethylpropyl)-1-[(1-methyl-1H-imidazol-4-yl)sulfonyl]-4-phenylpyrrolidin-3-amine] the figure was not above 1000 nM; with `Cc1nn(C)cc1S(=O)(=O)N1C[C@@H](NC(=O)c2cccc(C(F)(F)F)c2Cl)[C@H](c2ccccc2)C1` (relative stereo) [Example 42, 2-chloro-N-{trans-1-[(1,3-dimethyl-1H-pyrazol-4-yl)sulfonyl]-4-phenylpyrrolidin-3-yl}-3-(trifluoromethyl)benzamide], not above 10000 nM; with `Cn1cnc(S(=O)(=O)N2C[C@@H](Nc3cccc(C(F)(F)F)n3)[C@H](c3ccccc3)C2)c1` (relative stereo) [Example 210, N-{trans-1-[(1-methyl-1H-imidazol-4-yl)sulfonyl]-4-phenylpyrrolidin-3-yl}-6-(trifluoromethyl)pyridin-2-amine], not above 10000 nM.
In the case of `CCc1ccc(S(=O)(=O)N2CC(Nc3ccc(F)c(F)c3)C(c3ccccc3)C2)s1` (stereo not drawn) [Example 492, N-(3,4-difluorophenyl)-1-[(5-ethylthiophen-2-yl)sulfonyl]-4-phenylpyrrolidin-3-amine], the Ki was not below 10000 nM.
Still for that read-out and setting: with `CC1CCN(S(=O)(=O)N2CC(Nc3ccc(F)c(F)c3)C(c3ccccc3)C2)CC1` (stereo not drawn) [Example 493, N-(3,4-difluorophenyl)-1-[(4-methylpiperidin-1-yl)sulfonyl]-4-phenylpyrrolidin-3-amine] the figure was not above 10000 nM; with `Cn1cnc(S(=O)(=O)N2C[C@@H](Nc3ccnc(F)c3)[C@H](c3ccccc3)C2)c1` (relative stereo) [Example 236, 2-fluoro-N-{trans-1-[(1-methyl-1H-imidazol-4-yl)sulfonyl]-4-phenylpyrrolidin-3-yl}pyridin-4-amine], not above 10000 nM; with `Cn1cnc(S(=O)(=O)N2C[C@@H](Nc3ccc(Cl)c(C(F)(F)F)c3)[C@H](c3ccccc3)C2)c1` (relative stereo) [Example 217, trans-N-[4-chloro-3-(trifluoromethyl)phenyl]-1-[(1-methyl-1H-imidazol-4-yl)sulfonyl]-4-phenylpyrrolidin-3-amine], not above 1000 nM.
On the same count and under the same terms, with `Cn1cnc(S(=O)(=O)N2C[C@@H](NCc3ccc(C(F)(F)F)c(Cl)c3)[C@H](c3ccc(F)cc3)C2)c1` (relative stereo) [Example 151, trans-N-[3-chloro-4-(trifluoromethyl)benzyl]-4-(4-fluorophenyl)-1-[(1-methyl-1H-imidazol-4-yl)sulfonyl]pyrrolidin-3-amine] the figure was not above 100 nM; with `Cn1cnc(S(=O)(=O)N2C[C@@H](Nc3cc(F)c(F)c(Cl)c3)[C@H](c3ccccc3)C2)c1` (relative stereo) [Example 219, trans-N-(3-chloro-4,5-difluorophenyl)-1-[(1-methyl-1H-imidazol-4-yl)sulfonyl]-4-phenylpyrrolidin-3-amine], not above 10000 nM; with `Cn1cnc(S(=O)(=O)N2C[C@H](NCc3nc4c(s3)CCCC4)[C@@H](c3ccccc3)C2)c1` [Example 456, (3R,4S)-1-[(1-methyl-1H-imidazol-4-yl)sulfonyl]-4-phenyl-N-(4,5,6,7-tetrahydro-1,3-benzothiazol-2-ylmethyl)pyrrolidin-3-amine], not above 1000 nM.
As to `CCCCCN[C@H]1CN(S(=O)(=O)c2cn(C)cn2)C[C@@H]1c1ccc(F)cc1` [Example 664, (3R,4S)-4-(4-fluorophenyl)-1-[(1-methyl-1H-imidazol-4-yl)sulfonyl]-N-pentylpyrrolidin-3-amine], the Ki was not above 100 nM.
Same read-out and setting: the value for `Cc1cc(N[C@@H]2CN(S(=O)(=O)c3cn(C)cn3)C[C@H]2[C@@H]2CCCOC2)ccc1F` (mixture of isomers) [Example 790, Trans-N-(4-fluoro-3-methylphenyl)-1-[(1-methyl-1H-imidazol-4-yl)sulfonyl]-4-[(3S)-tetrahydro-2H-pyran-3-yl]pyrrolidin-3-amine] was not above 1000 nM; that for `Cn1cnc(S(=O)(=O)N2C[C@H](NCc3cncc(-c4ccc(F)cc4)c3)[C@@H](c3ccccc3)C2)c1` [Example 445, (3R,4S)-N-{[5-(4-fluorophenyl)pyridin-3-yl]methyl}-1-[(1-methyl-1H-imidazol-4-yl)sulfonyl]-4-phenylpyrrolidin-3-amine] was not above 1000 nM; that for `Cn1cnc(S(=O)(=O)N2C[C@@H](NCc3ccc(Cl)cc3Cl)[C@H](c3ccccc3F)C2)c1` (relative stereo) [Example 282, trans-N-(2,4-dichlorobenzyl)-4-(2-fluorophenyl)-1-[(1-methyl-1H-imidazol-4-yl)sulfonyl]pyrrolidin-3-amine] was not above 100 nM.
Same read-out and setting: the value for `O=S(=O)(c1ccc(N2CCOCC2)nc1)N1CC(Nc2ccc(F)c(F)c2)C(c2ccccc2)C1` (stereo not drawn) [Example 494, N-(3,4-difluorophenyl)-1-{[6-(morpholin-4-yl)pyridin-3-yl]sulfonyl}-4-phenylpyrrolidin-3-amine] was not above 10000 nM.
The same measure, in the same setting: the value for `Cn1cnc(S(=O)(=O)N2C[C@@H](Nc3cc(Cl)ncn3)[C@H](c3ncccc3F)C2)c1` (relative stereo) [Example 772, 6-chloro-N-{trans-4-(3-fluoropyridin-2-yl)-1-[(1-methyl-1H-imidazol-4-yl)sulfonyl]pyrrolidin-3-yl}pyrimidin-4-amine] was not above 10000 nM.
As for `Cc1cc(C#N)cc(N[C@@H]2CN(S(=O)(=O)c3cn(C)cn3)C[C@H]2c2ccccc2)c1` (relative stereo) [Example 101, 3-methyl-5-({trans-1-[(1-methyl-1H-imidazol-4-yl)sulfonyl]-4-phenylpyrrolidin-3-yl}amino)benzonitrile], the Ki is not above 1000 nM.
The same measure, in the same setting: the value for `Cn1cnc(S(=O)(=O)N2C[C@H](NC(=O)Nc3ccccc3)[C@@H](c3ccc(F)cc3)C2)c1` [Example 692, 1-{(3R,4S)-4-(4-fluorophenyl)-1-[(1-methyl-1H-imidazol-4-yl)sulfonyl]pyrrolidin-3-yl}-3-phenylurea] was not above 1000 nM; that for `CC(CN[C@H]1CN(S(=O)(=O)c2cn(C)cn2)C[C@@H]1c1ccccc1)c1ccccc1` (stereo partly drawn) [Example 465, (3R,4S)-1-[(1-methyl-1H-imidazol-4-yl)sulfonyl]-4-phenyl-N-(2-phenylpropyl)pyrrolidin-3-amine] was not above 1000 nM; that for `Cn1cnc(S(=O)(=O)N2C[C@@H](NC(=O)c3ccc(C(F)(F)F)c(Cl)c3)[C@H](c3ccc(F)cc3)C2)c1` (relative stereo) [Example 63, 3-chloro-N-{trans-4-(4-fluorophenyl)-1-[(1-methyl-1H-imidazol-4-yl)sulfonyl]pyrrolidin-3-yl}-4-(trifluoromethyl)benzamide] was not above 100 nM.

Staying with this test, now noted: radioligand binding, recombinant CHO cell membranes expressing human GlyT1c.
Consider `Cn1cc(S(=O)(=O)N2C[C@H](Nc3cccc(OC(F)(F)F)c3)[C@@H](c3ccc(F)cc3)C2)nn1` [Example 837, (3R,4S)-4-(4-fluorophenyl)-1-[(1-methyl-1H-1,2,3-triazol-4-yl)sulfonyl]-N-[3-(trifluoromethoxy)phenyl]pyrrolidin-3-amine], for which the Ki is not above 10 nM.
The same measure, in the same setting: the value for `Cn1cnc(S(=O)(=O)N2C[C@@H](Nc3ccc(F)c(Cl)c3)[C@H](C3CCOC3)C2)c1` (relative stereo) [Example 830, trans -N-(3-chloro-4-fluorophenyl)-1-[(1-methyl-1H-imidazol-4-yl)sulfonyl] -4-(tetrahydrofuran-3 - yl)pyrrolidin-3-amine] was not above 10000 nM.

In general, Ki refers to a dissociation constant, usually derived from enzyme kinetics or from competition with a known ligand.
